Article PMC5725665, “Discovery of a Highly Selective Cell‐Active Inhibitor of the Histone Lysine Demethylases KDM2/7” (Angewandte Chemie (International Ed. in English), 2017)

Key:
Experiment in all cases: biochemical
Set-up in all cases: AlphaScreen histone demethylase activity assay
JARID1A (KDM5A) = JARID1A (KDM5A) (Homo sapiens, UniProt P29375)
Description: (§1) A base‐mediated 5‐endo‐trig cyclization of a C‐2‐substituted aromatic imine afforded the racemic indoline core with two adjacent stereocenters. Subsequent acylation of the indoline ring system conferred stability towards oxidation and provided a handle for modulating polarity. Finally, metal‐catalysed cross‐coupling of the aryl bromide provided access to a variety of linkers between the indoline core and pyrrolidine capping group. In total, 45 racemic compounds were synthesized, and IC50 values for inhibition of KDM2A were determined using two orthogonal enzyme activity assays: AlphaScreen25 and RapidFire MS26 (see Section S3.1 in the Supporting Information for complete inhibition data). Key structure–activity relationships are summarized below (Scheme 1 B, compounds 2–12). […] In immunofluorescence assays using HeLa cells ectopically expressing catalytically active KDM2A, a dose‐dependent increase in H3K36me2 staining was observed upon incubation with (S,S)‐6, reflecting augmented cellular H3K36me2 levels (Figure 2 A and Section S3.3). […] To profile its selectivity, (S,S)‐6 was tested for inhibitory activity against a panel of KDMs, methyllysine binding motifs, and epigenetic enzymes.

JARID1C (KDM5C) = JARID1C (KDM5C) (Homo sapiens, UniProt P41229)
JARID1C (KDM5C), sequence (P41229 whole entry): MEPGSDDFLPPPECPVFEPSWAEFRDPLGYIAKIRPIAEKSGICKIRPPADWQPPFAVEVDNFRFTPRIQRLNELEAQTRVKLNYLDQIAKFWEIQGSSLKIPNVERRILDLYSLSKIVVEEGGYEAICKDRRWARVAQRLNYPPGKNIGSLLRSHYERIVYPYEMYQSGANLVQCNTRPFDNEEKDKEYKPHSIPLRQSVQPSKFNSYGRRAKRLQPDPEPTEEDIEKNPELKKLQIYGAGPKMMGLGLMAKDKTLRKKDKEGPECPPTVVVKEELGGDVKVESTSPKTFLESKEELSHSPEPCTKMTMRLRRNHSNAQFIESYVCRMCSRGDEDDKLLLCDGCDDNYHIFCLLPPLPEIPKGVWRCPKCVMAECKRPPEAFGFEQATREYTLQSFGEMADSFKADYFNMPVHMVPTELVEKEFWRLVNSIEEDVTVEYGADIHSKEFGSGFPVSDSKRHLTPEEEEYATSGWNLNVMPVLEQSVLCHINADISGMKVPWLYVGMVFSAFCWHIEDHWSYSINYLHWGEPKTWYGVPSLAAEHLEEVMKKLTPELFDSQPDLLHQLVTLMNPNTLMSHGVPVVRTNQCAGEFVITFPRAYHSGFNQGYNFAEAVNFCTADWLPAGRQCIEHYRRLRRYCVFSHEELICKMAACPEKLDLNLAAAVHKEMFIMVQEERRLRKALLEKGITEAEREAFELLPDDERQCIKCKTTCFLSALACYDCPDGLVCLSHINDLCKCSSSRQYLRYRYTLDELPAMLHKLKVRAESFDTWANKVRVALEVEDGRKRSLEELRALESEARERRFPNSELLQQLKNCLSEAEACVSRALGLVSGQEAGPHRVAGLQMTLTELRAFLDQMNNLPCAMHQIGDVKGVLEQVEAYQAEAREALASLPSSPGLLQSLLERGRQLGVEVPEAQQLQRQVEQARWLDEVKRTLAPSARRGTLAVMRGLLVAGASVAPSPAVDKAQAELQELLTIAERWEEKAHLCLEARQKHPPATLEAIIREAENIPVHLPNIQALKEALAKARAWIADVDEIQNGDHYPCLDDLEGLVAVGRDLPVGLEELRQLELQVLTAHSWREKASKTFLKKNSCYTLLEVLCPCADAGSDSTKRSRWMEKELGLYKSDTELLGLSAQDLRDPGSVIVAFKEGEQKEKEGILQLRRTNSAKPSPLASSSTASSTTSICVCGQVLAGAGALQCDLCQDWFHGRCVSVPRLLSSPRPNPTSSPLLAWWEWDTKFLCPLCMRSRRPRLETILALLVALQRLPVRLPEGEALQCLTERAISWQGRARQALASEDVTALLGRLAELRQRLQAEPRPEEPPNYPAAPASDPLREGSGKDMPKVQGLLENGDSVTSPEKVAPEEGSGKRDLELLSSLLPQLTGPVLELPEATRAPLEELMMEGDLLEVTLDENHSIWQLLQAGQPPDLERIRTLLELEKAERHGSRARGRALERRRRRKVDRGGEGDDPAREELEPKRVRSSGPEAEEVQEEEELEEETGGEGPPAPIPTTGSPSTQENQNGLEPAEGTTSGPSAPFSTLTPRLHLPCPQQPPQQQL
Description: as §1

JMJD1A (KDM3A) = molecular target: T1, JMJD1A (KDM3A) (Homo sapiens, UniProt Q9Y4C1)
T1 sequence (Q9Y4C1 1-1321): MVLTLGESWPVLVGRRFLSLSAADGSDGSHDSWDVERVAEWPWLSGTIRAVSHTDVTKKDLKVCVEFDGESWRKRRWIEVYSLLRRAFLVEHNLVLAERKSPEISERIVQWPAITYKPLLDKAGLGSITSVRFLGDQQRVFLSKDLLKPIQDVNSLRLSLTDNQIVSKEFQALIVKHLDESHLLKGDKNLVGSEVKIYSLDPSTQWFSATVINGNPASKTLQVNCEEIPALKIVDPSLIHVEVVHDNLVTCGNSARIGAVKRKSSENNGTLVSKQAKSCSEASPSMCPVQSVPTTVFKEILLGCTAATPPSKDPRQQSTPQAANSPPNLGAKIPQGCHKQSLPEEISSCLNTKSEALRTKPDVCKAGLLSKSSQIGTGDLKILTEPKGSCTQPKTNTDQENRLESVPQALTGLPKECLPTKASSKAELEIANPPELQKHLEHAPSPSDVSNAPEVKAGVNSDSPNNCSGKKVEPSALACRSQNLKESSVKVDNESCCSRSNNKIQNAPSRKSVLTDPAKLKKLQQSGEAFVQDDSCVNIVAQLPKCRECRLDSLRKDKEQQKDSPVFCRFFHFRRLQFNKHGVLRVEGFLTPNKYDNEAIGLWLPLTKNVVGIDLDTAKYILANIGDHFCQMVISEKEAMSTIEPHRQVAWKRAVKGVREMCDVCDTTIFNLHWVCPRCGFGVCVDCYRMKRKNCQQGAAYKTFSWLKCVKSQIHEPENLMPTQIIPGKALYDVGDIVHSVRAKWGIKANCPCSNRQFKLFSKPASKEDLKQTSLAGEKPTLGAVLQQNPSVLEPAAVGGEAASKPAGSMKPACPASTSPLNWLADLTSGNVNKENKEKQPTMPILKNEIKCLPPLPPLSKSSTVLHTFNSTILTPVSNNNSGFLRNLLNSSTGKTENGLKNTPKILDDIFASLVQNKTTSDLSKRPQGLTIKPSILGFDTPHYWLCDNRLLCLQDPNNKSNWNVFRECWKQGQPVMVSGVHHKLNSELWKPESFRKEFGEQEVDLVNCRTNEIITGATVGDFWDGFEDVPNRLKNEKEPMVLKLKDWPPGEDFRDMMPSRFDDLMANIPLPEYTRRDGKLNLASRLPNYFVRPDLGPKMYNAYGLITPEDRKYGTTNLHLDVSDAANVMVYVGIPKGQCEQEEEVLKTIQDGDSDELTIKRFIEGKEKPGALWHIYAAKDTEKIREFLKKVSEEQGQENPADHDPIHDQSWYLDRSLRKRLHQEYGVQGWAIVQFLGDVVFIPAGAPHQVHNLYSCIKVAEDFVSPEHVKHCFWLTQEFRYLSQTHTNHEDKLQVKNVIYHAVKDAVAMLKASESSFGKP
Description: as §1

JMJD2C (KDM4C) = molecular target: T2, JMJD2C (KDM4C) (Homo sapiens, UniProt Q9H3R0); conditions: read-out: KDM4C % Inhib. (10 uM)
T2 sequence (Q9H3R0 1-1056): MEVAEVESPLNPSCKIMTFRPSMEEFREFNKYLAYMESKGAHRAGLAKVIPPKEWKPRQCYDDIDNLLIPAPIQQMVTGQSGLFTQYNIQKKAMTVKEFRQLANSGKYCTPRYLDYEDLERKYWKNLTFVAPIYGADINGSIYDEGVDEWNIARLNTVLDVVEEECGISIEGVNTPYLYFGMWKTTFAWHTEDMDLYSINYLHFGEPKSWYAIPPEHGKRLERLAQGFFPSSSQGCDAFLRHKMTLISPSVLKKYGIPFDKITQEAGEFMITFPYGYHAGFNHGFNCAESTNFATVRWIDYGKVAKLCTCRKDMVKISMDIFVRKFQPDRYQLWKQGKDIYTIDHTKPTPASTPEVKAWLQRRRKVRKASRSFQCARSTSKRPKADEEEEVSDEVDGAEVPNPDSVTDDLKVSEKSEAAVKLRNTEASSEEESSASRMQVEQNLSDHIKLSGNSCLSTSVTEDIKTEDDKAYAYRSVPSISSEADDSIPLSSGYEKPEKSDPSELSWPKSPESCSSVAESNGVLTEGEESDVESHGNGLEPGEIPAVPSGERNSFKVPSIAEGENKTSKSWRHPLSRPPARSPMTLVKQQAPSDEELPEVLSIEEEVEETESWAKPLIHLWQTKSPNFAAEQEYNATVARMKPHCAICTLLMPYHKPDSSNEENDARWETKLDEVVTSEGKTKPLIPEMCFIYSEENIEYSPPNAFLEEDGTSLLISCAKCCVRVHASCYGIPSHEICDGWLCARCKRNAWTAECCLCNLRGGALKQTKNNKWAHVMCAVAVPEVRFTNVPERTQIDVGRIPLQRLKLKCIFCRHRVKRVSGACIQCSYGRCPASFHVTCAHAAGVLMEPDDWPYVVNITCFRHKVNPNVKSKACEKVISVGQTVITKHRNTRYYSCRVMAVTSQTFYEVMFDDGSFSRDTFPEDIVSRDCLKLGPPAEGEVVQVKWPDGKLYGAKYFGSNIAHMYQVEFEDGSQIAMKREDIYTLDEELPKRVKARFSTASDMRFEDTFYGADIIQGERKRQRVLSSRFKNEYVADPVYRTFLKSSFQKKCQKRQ
Description: as §1

JMJD2D (KDM4D) = molecular target: T3, JMJD2D (KDM4D) (Homo sapiens, UniProt Q6B0I6)
T3 sequence (Q6B0I6 1-523): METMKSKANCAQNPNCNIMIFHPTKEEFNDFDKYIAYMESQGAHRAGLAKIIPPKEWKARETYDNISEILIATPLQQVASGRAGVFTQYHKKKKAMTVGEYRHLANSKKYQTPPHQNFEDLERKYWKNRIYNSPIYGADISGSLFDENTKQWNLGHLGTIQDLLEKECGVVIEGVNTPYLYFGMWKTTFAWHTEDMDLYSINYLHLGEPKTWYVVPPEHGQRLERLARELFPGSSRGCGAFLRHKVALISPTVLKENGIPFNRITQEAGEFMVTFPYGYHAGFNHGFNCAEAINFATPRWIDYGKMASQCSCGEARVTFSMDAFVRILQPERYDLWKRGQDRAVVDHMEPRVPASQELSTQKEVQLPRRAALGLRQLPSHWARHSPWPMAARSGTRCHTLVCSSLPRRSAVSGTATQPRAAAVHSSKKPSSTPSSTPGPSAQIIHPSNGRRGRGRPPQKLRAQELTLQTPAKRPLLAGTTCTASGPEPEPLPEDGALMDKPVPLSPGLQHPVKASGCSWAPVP
Description: as §1

JMJD2A (KDM4A) = molecular target: T4, JMJD2A (KDM4A) (Homo sapiens, UniProt O75164); conditions: read-out: KDM4A % Inhib. (10 uM)
T4 sequence (O75164 1-1064): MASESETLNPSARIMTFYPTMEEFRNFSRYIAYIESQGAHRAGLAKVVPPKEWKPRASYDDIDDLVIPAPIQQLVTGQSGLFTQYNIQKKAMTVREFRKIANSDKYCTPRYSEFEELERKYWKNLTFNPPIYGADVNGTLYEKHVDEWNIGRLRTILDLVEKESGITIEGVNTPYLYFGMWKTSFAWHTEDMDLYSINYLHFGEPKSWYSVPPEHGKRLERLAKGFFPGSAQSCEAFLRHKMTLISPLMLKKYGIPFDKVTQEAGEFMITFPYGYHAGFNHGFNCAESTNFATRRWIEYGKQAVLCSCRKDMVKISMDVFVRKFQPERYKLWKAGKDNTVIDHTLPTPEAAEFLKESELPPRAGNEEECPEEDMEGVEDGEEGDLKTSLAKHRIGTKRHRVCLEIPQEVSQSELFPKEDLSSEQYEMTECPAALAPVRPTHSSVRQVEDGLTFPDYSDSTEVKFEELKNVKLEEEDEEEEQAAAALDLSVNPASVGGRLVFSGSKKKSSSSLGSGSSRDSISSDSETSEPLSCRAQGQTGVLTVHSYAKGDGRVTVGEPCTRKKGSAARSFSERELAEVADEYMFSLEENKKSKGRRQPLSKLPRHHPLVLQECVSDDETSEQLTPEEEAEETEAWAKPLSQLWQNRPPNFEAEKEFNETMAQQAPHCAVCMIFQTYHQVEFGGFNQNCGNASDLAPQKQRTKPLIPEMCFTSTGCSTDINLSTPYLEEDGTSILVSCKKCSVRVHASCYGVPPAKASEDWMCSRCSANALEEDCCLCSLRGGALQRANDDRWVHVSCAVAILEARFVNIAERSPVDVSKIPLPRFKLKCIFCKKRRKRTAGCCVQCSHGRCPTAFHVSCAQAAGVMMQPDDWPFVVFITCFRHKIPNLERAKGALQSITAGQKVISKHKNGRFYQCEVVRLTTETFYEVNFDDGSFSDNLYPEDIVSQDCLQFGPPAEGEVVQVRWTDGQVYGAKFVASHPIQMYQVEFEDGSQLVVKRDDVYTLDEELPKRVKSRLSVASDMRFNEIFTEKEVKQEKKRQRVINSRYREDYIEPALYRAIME

JARID1A (KDM5A), sequence (P29375 whole entry): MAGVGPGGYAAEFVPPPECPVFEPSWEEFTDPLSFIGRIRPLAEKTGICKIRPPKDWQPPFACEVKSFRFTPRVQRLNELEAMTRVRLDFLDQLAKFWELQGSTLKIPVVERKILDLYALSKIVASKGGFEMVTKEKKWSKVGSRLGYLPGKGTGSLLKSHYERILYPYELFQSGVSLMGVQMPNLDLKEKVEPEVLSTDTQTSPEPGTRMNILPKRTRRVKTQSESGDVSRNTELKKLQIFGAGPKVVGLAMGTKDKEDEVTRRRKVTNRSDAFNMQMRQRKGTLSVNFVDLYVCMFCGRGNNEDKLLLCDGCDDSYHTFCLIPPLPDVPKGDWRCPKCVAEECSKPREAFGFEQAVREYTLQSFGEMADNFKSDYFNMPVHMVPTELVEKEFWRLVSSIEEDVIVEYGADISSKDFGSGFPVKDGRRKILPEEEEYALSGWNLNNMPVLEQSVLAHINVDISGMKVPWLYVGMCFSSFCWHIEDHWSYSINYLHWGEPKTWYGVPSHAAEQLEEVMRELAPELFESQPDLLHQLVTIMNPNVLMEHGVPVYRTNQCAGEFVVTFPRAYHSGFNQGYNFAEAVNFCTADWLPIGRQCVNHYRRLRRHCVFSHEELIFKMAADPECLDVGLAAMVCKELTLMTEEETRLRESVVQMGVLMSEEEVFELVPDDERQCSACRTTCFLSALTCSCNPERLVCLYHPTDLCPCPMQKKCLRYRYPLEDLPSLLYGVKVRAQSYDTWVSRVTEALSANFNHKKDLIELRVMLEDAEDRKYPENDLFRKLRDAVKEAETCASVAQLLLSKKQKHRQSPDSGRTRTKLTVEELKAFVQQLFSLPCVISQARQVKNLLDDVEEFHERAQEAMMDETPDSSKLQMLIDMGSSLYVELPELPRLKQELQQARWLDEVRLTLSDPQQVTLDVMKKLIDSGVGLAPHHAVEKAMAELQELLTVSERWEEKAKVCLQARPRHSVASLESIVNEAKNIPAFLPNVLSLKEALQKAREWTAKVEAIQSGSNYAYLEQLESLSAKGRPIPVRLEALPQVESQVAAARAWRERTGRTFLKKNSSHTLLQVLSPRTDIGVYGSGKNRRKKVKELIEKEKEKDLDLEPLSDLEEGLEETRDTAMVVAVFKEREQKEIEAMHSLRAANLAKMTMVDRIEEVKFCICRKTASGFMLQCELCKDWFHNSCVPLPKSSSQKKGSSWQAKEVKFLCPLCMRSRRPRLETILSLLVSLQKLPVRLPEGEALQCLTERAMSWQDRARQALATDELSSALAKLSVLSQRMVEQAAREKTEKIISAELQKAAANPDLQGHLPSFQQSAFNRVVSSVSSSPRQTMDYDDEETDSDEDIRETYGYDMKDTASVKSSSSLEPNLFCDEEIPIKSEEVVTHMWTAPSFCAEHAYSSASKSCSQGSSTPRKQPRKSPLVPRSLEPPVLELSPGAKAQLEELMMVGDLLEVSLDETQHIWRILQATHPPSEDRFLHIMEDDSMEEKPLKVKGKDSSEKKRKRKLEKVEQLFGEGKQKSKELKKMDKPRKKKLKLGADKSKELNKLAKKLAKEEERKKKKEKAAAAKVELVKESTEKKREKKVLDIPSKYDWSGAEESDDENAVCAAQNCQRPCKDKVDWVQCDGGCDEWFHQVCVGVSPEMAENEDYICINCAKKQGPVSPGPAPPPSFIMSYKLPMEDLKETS

CC(=O)N1c2ccccc2[C@](C#N)(c2ccccc2)[C@H]1c1cncc(/C=C/CCCCCN2CCCC2)c1 (racemic) [compound 5, 5]
inhibition at 50 µM (JARID1A (KDM5A)): 39.1% | inhibition at 100 µM (JARID1C (KDM5C)): 32.3% | inhibition at 100 µM (JMJD1A (KDM3A)): 15.1 ± 9.5%

CC(=O)N1c2ccccc2C(C#N)(c2ccccc2)C1c1cncc(-c2cn(CCCCCN3CCCC3)nn2)c1 (stereo not shown) [compound 119, 119]
inhibition at 50 µM (JARID1A (KDM5A)): 39.5% | inhibition at 100 µM (JARID1C (KDM5C)): 46.7% | inhibition at 100 µM (JMJD1A (KDM3A)): 21.1%

CC(=O)N1c2ccccc2C(C#N)(c2ccccc2)C1c1ccc(CCCCCCCN2CCCC2)o1 (stereo not shown) [compound 138, 138]
inhibition at 50 µM (JARID1A (KDM5A)): 46.6% | inhibition at 10 µM (JMJD2C (KDM4C)): 32.3% | inhibition at 10 µM (JMJD2D (KDM4D)): 14.4% | inhibition at 10 µM (JMJD2A (KDM4A)): 24.4%
